The source of these data is patent US20250041270A1, “SMALL MOLECULE DRUGS THAT REDUCE PROTEIN AGGREGATION” (BIOVENTURES, LLC, priority 2021, published 2025).

One data set deals with SH-SY5Y-APPSw cells. The data set can be described thus: Total sarkosyl-insoluble aggregate protein, SYPRO Ruby stained gels. It is filed as cell-based, human. Particulars: for suppression of aggregate protein: cells treated 48 h, sarkosyl-insoluble fraction. On the procedure:
MSR1 treatment of SH-SY5Y-APPSw, cells. Human neuroblastoma (SH-SY5Y-APPSw) cells were grown as previously described (Kakraba et al., 2)19, Liu et al., 2005). SH-SY5Y-APPSw cells, expressing an aggregation-prone “Swedish” double mutant of amyloid precursor protein (APPSw), were grown in DMEM plus 10% (v/v) FBS at 37° C. Cells were suspended in trypsin/EDTA and rinsed in buffer prior to replating or harvesting. Immediately preceding assay, cells were grown 48 hr in the presence of 10-μM MSR1 dissolved in DMSO (0.02% final concentration), or 0.02% DMSO (solvent alone) for control cells. Cells were harvested, total protein was isolated, and aggregate proteins were purified as described below.
Isolation of aggregate proteins. Cultured human cells were collected, flash frozen in liquid nitrogen, and homogenized at 0° C. in the presence of buffer containing nonionic detergent (1% v/v NP40, 20-mM Hepes pH 7.4, 300-mM NaCl, 2-mM MgCl2, and protease/phosphatase inhibitors [CalBiochem]). Lysates were centrifuged (5 min, 3000 rpm at 4° C.) to remove debris. After removal of cytosolic proteins (soluble in 1% NP40 nonionic detergent) by centrifugation (18 min, 13,000×g at 4° C.), protein pellets were brought to pH 7.4 with 0.1-M HEPES buffer containing 1% v/v sarkosyl(sodium lauryl sarcosinate) and 5-mM EDTA, and centrifuged 30 min at 100,000×g. Pellet proteins (the sarkosyl-insoluble fraction) were resuspended in Laemmli loading buffer (containing 50-mM dithiothreitol and 2% v/v SDS, sodium dodecyl sulfate), heated 5 min at 95° C. to dissolve proteins soluble in this buffer, and separated by electrophoresis on 4-20% polyacrylamide gradient gels containing 1% v/v SDS. Gels were stained with SYPRO Ruby (ThermoFisher) or Coomassie Blue to visualize protein. Gel lanes were robotically cut into 1-mm slices, and digested thoroughly with trypsin. Proteins in each slice were identified by mass spectrometry as described previously (Ayyadevara et al., 2015; Ayyadevara et al., 2016a; Ayyadevara et al., 2016b; Ayyadevara et al., 2016c; Ayyadevara et al., 2016d; Balasubramaniam et al., 2018).

In another data set the test system is C. elegans strain VH255. The experiment in a line: Paralysis assay in human tau-expressing C. elegans. It is filed as in vivo. Particulars: 1-μM; compared with siRNA against ifp-1. On the procedure:
Paralysis assays in human tau-expressing C. elegans strain VH255. Transgenic C. elegans strain VH255, with pan-neuronal expression of human tau (Brandt et al., 2009), are maintained at 25° C. on agar plates overlaid with a lawn of E. coli (OP50) bacteria. Worms are lysed in alkaline hypochlorite solution to obtain unlaid eggs used to generate a synchronized culture. The eggs were then transferred to 100-mm NGM-agar plates, to which MSR1 or MSR2 had been added to a final concentration of 1 μM. For ifp-1 RNAi knockdown, the bacterial lawn consisted of strain HT115 expressing an exonic segment of double-stranded ifp-I RNA (see next section). The worms were washed and added to fresh, drug-equilibrated plates every two days. Assays were performed on day-3 adults to assess the fraction of paralyzed worms.

In a further data set the test system is C. elegans strain CL2355. The data set can be described thus: Chemotaxis to n-butanol in Aβ1-42 expressing C. elegans. It is filed as in vivo. Particulars: 0.1 μM. Here is the method:
Chemotaxis and paralysis assay)s in Aβ-tragsgenic C elegans strains CL2355 and CL4176. Transgenic C. elegans strains, expressing Aβ1-42 in neurons (C2355) or in muscle (CL4176), were grown at 20° C. with ample 1. coli (OP50) bacteria, and on day 1 of adult life worms were lysed to release eggs and thus generate a synchronized cohort. Eggs were then placed on I00-mm NGM-agar Petri dishes seeded with RNAi-expressing bacteria (E coil H-T1′15) targeting a GFAP orthologue, or empty-vector control bacteria. Worms at the L3-L4 transition were upshifted to 25.5° C. to induce human Aβ1-42 transgene expression and assayed after 48 hours. Chemotaxis (Dosanjh et al., 2010) and paralysis (Dostal and Link, 2010) assays were performed as described previously (Ayyadevara et al., 2017; Ayyadevara et al., 2016b; Ayyadevara et al., 2016d; Kakraba et al., 2019).
(§1) RNAi in C.elegans. RNA-mediated interference (RNAi) is achieved by feeding bacteria that express double-stranded RNA corresponding to an exonic fragment of the mRNA target (Ayyadevara et al., 2016c; Fire et al., 1991; Fire et al., 1998; Kakraba et al., 2019). Briefly, worm cultures were synchronized by alkaline hypochlorite lysis to release unlaid eggs. […] Worms on adult day 3 (5.5 days post-hatch) were imaged to assess total aggregate fluorescence (strain AM141), or were assessed for paralysis (VH255) or chemotaxis toward n-butanol (CL2355).

In another data set the test system is C. elegans strain AM141. The experiment in a line: Q40::YFP aggregate fluorescence per worm. The class given is in vivo. Particulars: 5 days post-hatch.
From the text: C. elegans strains: Nematode strains used in this study were all obtained from the Caenorhabditis Genetics Center (CGC; Minneapolis, MN). Nematode models of Alzheimer's disease-like arnyloidosis were CL4176 [smg-1^ts; myo-3p::Aβ1-42::let-851 3′-UTR; rol-6(sul006)] expressing human Aβ1-42 in muscle; and CL2355 [smg-l^ts; snb-1::Aβ1-42::3′UTR(long); mtl-2::gfp] expressing human Aβ1-42 in all neurons. Strain AM141 expresses a polyglutamine reporter (Q40::YFP) in muscle, and thus serves as a model of glutamine-tract aggregation similar to that observed in Huntington disease and several other neuropathologies (Morley et al., 2002). All strains were propagated at 20° C. on2% (w/v) agar plates containing nematode growth medium (NGM), overlaid with E col strain OP50 unless otherwise noted.
as §1

For another data set, the system named is neuroblastoma cells. The data set can be described thus: Initial testing for cytotoxicity in neuroblastoma cells. The class given is cell-based, human. Particulars: data not shown.
The test system of a further data set is C. elegans. The experiment in a line: Effect on C. elegans development. The class given is in vivo. Particulars: all doses tested, data not shown.

Structures are written as SMILES.

Take `O=C(NC[C@H]1CC[C@H](CO)CC1)c1ccc(N2CCCC2)c(Cl)c1` [MSR1, 3-chloro-N-{[trans-4-(hydroxymethyl)cyclo-hexyl]methyl}-4-pyrrolidin-1-ylbenzamide]: in the data set with SH-SY5Y-APPSw cells, the “suppression of aggregate protein” value is recorded as 60-75%. Also, the “suppression of protein aggregation” value in the data set on SH-SY5Y-APPSw cells (summary statement: a variety of model systems) is 60-75%. For the same compound, the “paralysis caused by tau aggregation” value in the data set with C. elegans strain VH255 is on record as “alleviated to a similar extent”. Also, in the data set on C. elegans strain CL2355, the “chemotaxis restored to” value is recorded as around 90%. Moreover, the “reduction of aggregate intensity per worm” value in the data set on C. elegans strain AM141 (10 μM) is around 50%; in the data set with C. elegans strain AM141 (0.1-μM), 35%.
Consider `O=C(c1cc2c([nH]c1=O)CCCC2)N1CCN(c2ccc(Cl)cn2)CC1` [MSR2, 3-{[4-(5-chloro-2-pyridinyl)-1-piperazinyl]carbonyl}-5,6,7,8-tetrahydro-2(1H)-quinolinone], for which the “suppression of aggregate protein” value with SH-SY5Y-APPSw cells is listed as “did not significantly reduce”.
With `O=C(c1ccc(N2CCCC2)c(Cl)c1)N1CCN(c2ccccn2)CC1` [MSR3, 1-(3-chloro-4-pyrrolidin-1-ylbenzoyl)-4-pyridin-2-ylpiperazine], the cytotoxicity result in the data set with neuroblastoma cells is “cytotoxic”. For the same compound, the C. elegans development entry in the data set with C. elegans is listed as “delay C. elegans development”.
